The text below walks through data of US11660293B2, “Substituted 2-azabicyclo[3.1.1]heptane and 2-azabicyclo[3.2.1]octane derivatives as orexin receptor antagonists” (Chronos Therapeutics Limited, priority 2017, dated 2023).

Where two headings read alike, the source gives them in different places. Some results are limits rather than exact numbers.

Experiment [1] concerns the target human Orexin type 2 receptors (Homo sapiens (Human), UniProt O43614). Put plainly: Scintillation Proximity Assay (SPA) binding assay, [3H]EMPA displacement, HEK-hOX2 membranes. To be noted: for Ki: read-out: OX2 pKi (SPA binding) (converted).
The target in experiment [2] is human Orexin type 1 receptors (Homo sapiens (Human), UniProt O43613). Put plainly: Scintillation Proximity Assay (SPA) binding assay, [3H]SB-674042 displacement, CHO-hOX1 membranes. Background: In a scintillation proximity assay essentially only radioactivity close to the scintillant gives light.
human Orexin type 1 receptors, sequence (O43613 whole entry): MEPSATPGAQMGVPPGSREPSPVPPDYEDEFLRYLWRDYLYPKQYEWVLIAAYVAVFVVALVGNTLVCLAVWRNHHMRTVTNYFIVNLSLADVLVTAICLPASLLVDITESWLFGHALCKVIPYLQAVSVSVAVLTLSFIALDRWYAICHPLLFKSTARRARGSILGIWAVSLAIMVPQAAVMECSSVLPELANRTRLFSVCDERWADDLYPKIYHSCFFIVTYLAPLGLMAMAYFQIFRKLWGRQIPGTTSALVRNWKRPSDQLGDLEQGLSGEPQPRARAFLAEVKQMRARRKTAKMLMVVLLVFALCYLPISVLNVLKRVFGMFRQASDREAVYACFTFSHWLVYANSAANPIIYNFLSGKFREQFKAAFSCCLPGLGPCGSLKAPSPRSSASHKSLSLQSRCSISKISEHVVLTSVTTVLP

human Orexin type 2 receptors, sequence (O43614 whole entry): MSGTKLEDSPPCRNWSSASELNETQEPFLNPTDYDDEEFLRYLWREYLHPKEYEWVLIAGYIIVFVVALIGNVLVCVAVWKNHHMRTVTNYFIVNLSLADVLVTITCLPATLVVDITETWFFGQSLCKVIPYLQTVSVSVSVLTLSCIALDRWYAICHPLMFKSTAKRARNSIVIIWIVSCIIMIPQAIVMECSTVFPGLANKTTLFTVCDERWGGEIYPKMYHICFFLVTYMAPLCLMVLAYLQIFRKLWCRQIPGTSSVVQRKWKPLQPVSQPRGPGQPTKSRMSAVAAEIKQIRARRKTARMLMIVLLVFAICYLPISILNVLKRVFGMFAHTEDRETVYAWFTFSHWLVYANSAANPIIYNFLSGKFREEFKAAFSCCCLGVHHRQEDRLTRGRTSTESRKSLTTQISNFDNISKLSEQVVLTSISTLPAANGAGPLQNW

As for `Cc1ccc(-c2nccs2)c(C(=O)N2C3CC(C3)[C@@H](C)C2COc2ccc(F)cc2)c1` (mixture of isomers) [Example 98, cis-3-[(4-fluorophenoxy)methyl]-4-methyl-2-[5-methyl-2-(1,3-thiazol-2-yl)benzoyl]-2-azabicyclo[3.1.1]heptane], in experiment [1] (Table 1, [3H]EMPA 2 nM), the “OX2 pKi (SPA binding)” value came to 6.75. For the same molecule, in experiment [2] (Table 1, [3H]SB-674042 2 nM), the “OX1 pKi (SPA binding)” value worked out at 7.86.

Turning to `Cc1ccc(-c2sc(C)nc2C(=O)N2C3CC(C3)[C@@H](C)C2COc2ccc(F)cc2)cn1` (stereo partly drawn) [Example 143, cis-3-[(4-fluorophenoxy)methyl]-4-methyl-2-[2-methyl-5-(6-methylpyridin-3-yl)-1,3-thiazole-4-carbonyl]-2-azabicylco[3.1.1]heptane], the “OX2 pKi (SPA binding)” value in experiment [1] (Table 2, [3H]EMPA 2 nM) amounted to 5.93. The “OX1 pKi (SPA binding)” value in experiment [2] (Table 2, [3H]SB-674042 2 nM) stood at 7.14.

In the case of `C[C@@H]1C2CC(C2)N(C(=O)c2cc(Cl)ccc2-n2nccn2)C1CNc1cnc2cc(F)ccc2n1` (mixture of isomers) [Example 207, cis-N-({2-[5-chloro-2-(2H-1,2,3-triazol-2-yl)benzoyl]-4-methyl-2-azabicyclo[3.1.1]heptan-3-yl}methyl)-6-fluoroquinoxalin-2-amine], the “OX2 pKi (SPA binding)” value in experiment [1] (Table 2, [3H]EMPA 2 nM) is given as 6.44. Further, the “OX1 pKi (SPA binding)” value in experiment [2] (Table 2, [3H]SB-674042 2 nM) came to 8.46.

In the case of `Cc1nc(C(=O)N2C(COc3ccc(Cl)cc3)CC3CC2C3)c(-c2ccccc2)s1` (centres unmarked) [Example 49], the “OX2 pKi (SPA binding)” value in experiment [1] (Table 1, [3H]EMPA 2 nM) is given as 6.81. Also, in experiment [2] (Table 1, [3H]SB-674042 2 nM), the “OX1 pKi (SPA binding)” value was 7.88.

For the molecule `Cc1nc(C(=O)N2C(CNc3nc4ccc(F)cc4s3)CC3CC2C3)c(-c2ccccc2)s1` (centres unmarked) [Example 61, 6-fluoro-N-{[2-(2-methyl-5-phenyl-1,3-thiazole-4-carbonyl)-2-azabicyclo[3.1.1]heptan-3-yl]methyl}-1,3-benzothiazol-2-amine], the “OX2 pKi (SPA binding)” value in experiment [1] (Table 1, [3H]EMPA 2 nM) is given as 8.03. The “OX1 pKi (SPA binding)” value in experiment [2] (Table 1, [3H]SB-674042 2 nM) came to 9.12.

Turning to `Cc1nc(C(=O)N2C(COc3ccc(F)cc3)CC3CC2C3)c(-c2ccc(F)cc2)s1` (centres unmarked) [Example 50], the “OX2 pKi (SPA binding)” value in experiment [1] (Table 1, [3H]EMPA 2 nM) amounted to 6.52. For the same molecule, in experiment [2] (Table 1, [3H]SB-674042 2 nM), the “OX1 pKi (SPA binding)” value came out at 7.66.

With `Cc1ccc(-c2ncccn2)c(C(=O)N2C3CC(C3)[C@H](C)C2COc2ccc(Cl)cn2)n1` (mixture of isomers) [Example 118, trans-3-{[(5-chloropyridin-2-yl)oxy]methyl}-4-methyl-2-[6-methyl-3-(pyrimidin-2-yl)pyridine-2-carbonyl]-2-azabicyclo[3.1.1]heptane], in experiment [1] (Table 2, [3H]EMPA 2 nM), the “OX2 pKi (SPA binding)” value was 5.75. In addition, in experiment [2] (Table 2, [3H]SB-674042 2 nM), the “OX1 pKi (SPA binding)” value is recorded as 7.39.

For the molecule `Cc1nc(C(=O)N2C3CC(C3)[C@@H](C)C2CNc2nc3ccc(F)cc3s2)c(-c2ncccn2)s1` (mixture of isomers) [Example 162, cis-6-fluoro-N-({4-methyl-2-[2-methyl-5-(pyrimidin-2-yl)-1,3-thiazole-4-carbonyl]-2-azabicyclo[3.1.1]heptan-3-yl]methyl)-1,3-benzothiazol-2-amine], the “OX2 pKi (SPA binding)” value in experiment [1] (Table 2, [3H]EMPA 2 nM) is listed as 5.59. Further, the “OX1 pKi (SPA binding)” value in experiment [2] (Table 2, [3H]SB-674042 2 nM) came out at 8.83.

Turning to `C[C@@H]1C2CC(C2)N(C(=O)c2cc(C#N)ccc2-n2nccn2)C1CNc1nc2ccc(F)cc2s1` (stereo partly drawn) [Example 175, cis-3-(3-{[(6-fluoro-1,3-benzothiazol-2-yl)amino]methyl}-4-methyl-2-azabicyclo[3.1.1]heptane-2-carbonyl)-4-(2H-1,2,3-triazol-2-yl)benzonitrile], the “OX2 pKi (SPA binding)” value in experiment [1] (Table 2, [3H]EMPA 2 nM) amounted to 6.02. Further, the “OX1 pKi (SPA binding)” value in experiment [2] (Table 2, [3H]SB-674042 2 nM) stood at 8.41.

Regarding `Cc1ccc(-n2nccn2)c(C(=O)N2C3CC(C3)[C@H](C)C2COc2ccc(Cl)cc2)n1` (single isomer, unassigned) [Example 119, (3S,4S) or (3R,4R)-3-[(4-chlorophenoxy)methyl]-4-methyl-2-[6-methyl-3-(2H-1,2,3-triazol-2-yl)pyridin-2-carbonyl]-2-azabicyclo[3.1.1]heptane], the “OX2 pKi (SPA binding)” value in experiment [1] (Table 2, [3H]EMPA 2 nM) is 5.77. Further, the “OX1 pKi (SPA binding)” value in experiment [2] (Table 2, [3H]SB-674042 2 nM) stood at 7.08.

Take `Cc1ccc(-c2nccs2)c(C(=O)N2C3CC(C3)[C@@H](C)C2CNc2ccc(F)cc2)c1` (stereo partly drawn) [Example 202, cis-4-fluoro-N-({4-methyl-2-[5-methyl-2-(1,3-thiazol-2-yl)benzoyl]-2-azabicyclo[3.1.1]heptan-3-yl}methyl)aniline]: the “OX2 pKi (SPA binding)” value in experiment [1] (Table 2, [3H]EMPA 2 nM) was 6.02. Besides, the “OX1 pKi (SPA binding)” value in experiment [2] (Table 2, [3H]SB-674042 2 nM) came out at 6.71.

For the molecule `Cc1ccc(-c2ncccn2)c(C(=O)N2C3CC(C3)[C@H](C)[C@@H]2COc2ccc(F)cc2)n1` (single isomer, unassigned) [Example 91, (3S,4R or 3R,4S)-3-(4-fluorophenoxymethyl)-4-methyl-2-[6-methyl-3-(pyrimidin-2-yl)pyridine-2-carbonyl]-2-azabicyclo[3.1.1]heptane], the Ki in experiment [1] (Table 1, [3H]EMPA 2 nM) is 35.5 nM; in experiment [2] (Table 1, [3H]SB-674042 2 nM, read-out: OX1 pKi (SPA binding) (converted)), 3.47 nM.

For `Cc1nc(C(=O)N2C(COc3ccc(C(F)(F)F)cn3)CC3CC2C3)c(-c2ccccc2)s1` (centres unmarked) [Example 55], the “OX2 pKi (SPA binding)” value in experiment [1] (Table 1, [3H]EMPA 2 nM) was 6.49. Further, in experiment [2] (Table 1, [3H]SB-674042 2 nM), the “OX1 pKi (SPA binding)” value is recorded as 7.38.

Regarding `Cc1cnn(-c2ccc(C)nc2C(=O)N2C3CC(C3)[C@@H](C)C2COc2ccc(F)cc2)c1` (mixture of isomers) [Example 135, cis-3-[(4-fluorophenoxy)methyl]-4-methyl-2-[6-methyl-3-(4-methyl-1H-pyrazol-1-yl)pyridine-2-carbonyl]-2-azabicyclo[3.1.1]heptane], in experiment [1] (Table 2, [3H]EMPA 2 nM), the “OX2 pKi (SPA binding)” value worked out at 6.39. The “OX1 pKi (SPA binding)” value in experiment [2] (Table 2, [3H]SB-674042 2 nM) turned out to be 7.78.

For the molecule `C[C@@H]1C2CC(C2)N(C(=O)c2cc(Cl)ccc2-n2nccn2)C1CNc1cnc(C(F)(F)F)cn1` (mixture of isomers) [Example 203, cis-N-({2-[5-chloro-2-(2H-1,2,3-triazol-2-yl)benzoyl]-4-methyl-2-azabicyclo[3.1.1]heptan-3-yl}methyl)-5-(trifluoromethyl)pyrazin-2-amine], the “OX2 pKi (SPA binding)” value in experiment [1] (Table 2, [3H]EMPA 2 nM) is on record as 5.05. Also, in experiment [2] (Table 2, [3H]SB-674042 2 nM), the “OX1 pKi (SPA binding)” value is 8.17.

In the case of `C[C@@H]1C2CC(C2)N(C(=O)c2cc(C#N)ccc2-n2nccn2)C1CNc1nc2cccnc2s1` (stereo partly drawn) [Example 231, cis-3-{4-methyl-3-[({[1,3]thiazolo[5,4-b]pyridin-2-yl}amino)methyl]-2-azabicyclo[3.1.1]heptane-2-carbonyl}-4-(2H-1,2,3-triazol-2-yl)benzonitrile], in experiment [1] (Table 2, [3H]EMPA 2 nM), the “OX2 pKi (SPA binding)” value is given as 5.21. Further, the “OX1 pKi (SPA binding)” value in experiment [2] (Table 2, [3H]SB-674042 2 nM) was determined as 8.2.

Regarding `Cc1nc(C(=O)N2C(COc3ccc(F)cc3)CC3CC2C3)c(-c2ccccc2F)s1` (centres unmarked) [Example 40], the “OX2 pKi (SPA binding)” value in experiment [1] (Table 1, [3H]EMPA 2 nM) amounted to 6.19. The “OX1 pKi (SPA binding)” value in experiment [2] (Table 1, [3H]SB-674042 2 nM) was found to be 7.33.

Regarding `Cc1ccc(OCC2CC3CC(C3)N2C(=O)c2nc(C)sc2-c2ccccc2)cc1` (centres unmarked) [Example 48], the “OX2 pKi (SPA binding)” value in experiment [1] (Table 1, [3H]EMPA 2 nM) came to 6.53. Further, the “OX1 pKi (SPA binding)” value in experiment [2] (Table 1, [3H]SB-674042 2 nM) was 7.45.

As to `Cc1ccc(-c2ncccn2)c(C(=O)N2C3CC(C3)[C@@H](C)C2CNc2cnc(C(F)(F)F)cn2)n1` (single isomer, unassigned) [Example 249, N-{[(3S,4R) or (3R,4S)-4-methyl-2-[6-methyl-3-(pyrimidin-2-yl)pyridine-2-carbonyl]-2-azabicyclo[3.1.1]heptan-3-yl]methyl}-5-(trifluoromethyl)pyrazin-2-amine], in experiment [1] (Table 2, [3H]EMPA 2 nM), the Ki was over 31600 nM. Further, in experiment [2] (Table 2, [3H]SB-674042 2 nM), the “OX1 pKi (SPA binding)” value is given as 5.12.

For the molecule `Cc1ccc(-n2ncc(C)n2)c(C(=O)N2C3CC(C3)[C@H](C)C2COc2ccc(F)cc2)n1` (mixture of isomers) [Example 127, trans-3-[(4-fluorophenoxy)methyl]-4-methyl-2-[6-methyl-3-(4-methyl-2H-1,2,3-triazol-2-yl)pyridine-2-carbonyl]-2-azabicyclo[3.1.1]heptane], the “OX2 pKi (SPA binding)” value in experiment [1] (Table 2, [3H]EMPA 2 nM) is recorded as 6.1. Besides, the “OX1 pKi (SPA binding)” value in experiment [2] (Table 2, [3H]SB-674042 2 nM) turned out to be 7.91.

Turning to `Cc1ccc(-n2nccn2)c(C(=O)N2C3CC(C3)[C@@H](C)C2CNc2ccc(F)c(C)n2)n1` (mixture of isomers) [Example 196, cis-5-fluoro-6-methyl-N-({4-methyl-2-[6-methyl-3-(2H-1,2,3-triazol-2-yl)pyridine-2-carbonyl]-2-azabicyclo[3.1.1]heptan-3-yl}methyl)pyridin-2-amine], the “OX2 pKi (SPA binding)” value in experiment [1] (Table 2, [3H]EMPA 2 nM) came out at 5.74. Besides, the “OX1 pKi (SPA binding)” value in experiment [2] (Table 2, [3H]SB-674042 2 nM) turned out to be 7.65.

On to `Cc1ccc(-c2ncc(F)cn2)c(C(=O)N2C3CC(C3)[C@@H](C)C2COc2ccc(F)cc2)n1` (mixture of isomers) [Example 134, cis-3-[(4-fluorophenoxy)methyl]-2-[3-(5-fluropyrimidin-2-yl)-6-methylpyridine-2-carbonyl]-4-methyl-2-azabicyclo[3.1.1]heptane], for which the “OX2 pKi (SPA binding)” value in experiment [1] (Table 2, [3H]EMPA 2 nM) stood at 7.03. Besides, in experiment [2] (Table 2, [3H]SB-674042 2 nM), the “OX1 pKi (SPA binding)” value came to 7.85.

For the molecule `Cc1ccc(-n2nccn2)c(C(=O)N2C3CC(C3)[C@@H](C)C2CNc2nc3ccccc3o2)n1` (single isomer, unassigned) [Example 227, N-{[(3R,4S) or (3S,4R)-4-methyl-2-[6-methyl-3-(2H-1,2,3-triazol-2-yl)pyridine-2-carbonyl]-2-azabicyclo[3.1.1]heptan-3-yl]methyl}-1,3-benzoxazol-2-amine], the “OX2 pKi (SPA binding)” value in experiment [1] (Table 2, [3H]EMPA 2 nM) turned out to be 4.9. Further, the “OX1 pKi (SPA binding)” value in experiment [2] (Table 2, [3H]SB-674042 2 nM) was determined as 7.11.

`Cc1ccc(-n2nccn2)c(C(=O)N2C3CC(C3)[C@@H](C)C2CNc2cnc3cc(F)ccc3n2)n1` (mixture of isomers) [Example 198, cis-6-fluoro-N-({4-methyl-2-[6-methyl-3-(2H-1,2,3-triazol-2-yl)pyridine-2-carbonyl]-2-azabicyclo[3.1.1]heptan-3-yl}methyl)quinoxalin-2-amine]: the “OX2 pKi (SPA binding)” value in experiment [1] (Table 2, [3H]EMPA 2 nM) came to 6.27. In experiment [2] (Table 2, [3H]SB-674042 2 nM), the “OX1 pKi (SPA binding)” value is given as 8.07.

On to `Cc1ccc(-n2nccn2)c(C(=O)N2C3CC(C3)[C@@H](C)C2CNc2cnc3ccccc3n2)n1` (single isomer, unassigned) [Example 160, N-{[(3R,4S) or (3S,4R)-4-methyl-2-[6-methyl-3-(2H-1,2,3-triazol-2-yl)pyridine-2-carbonyl]-2-azabicyclo[3.1.1]heptan-3-yl]methyl}quinoxalin-2-amine], for which the “OX2 pKi (SPA binding)” value in experiment [1] (Table 2, [3H]EMPA 2 nM) was found to be 5.98. The “OX1 pKi (SPA binding)” value in experiment [2] (Table 2, [3H]SB-674042 2 nM) came to 8.68.
